Assay results taken from PubChem BioAssay (NCI).
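Method: 48-hour compound exposure of cells in 96-well plates, five concentrations, linear interpolation of endpoints. GI50 marks 50% less growth. TGI denotes the concentration required for complete inhibition of growth.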

Experiments:
Experiment in all cases: NCI tumour cell line growth inhibition, 48 h
KM12 colon = tested on: KM12 colon
OVCAR-8 ovarian = tested on: OVCAR-8 ovarian
OVCAR-3 ovarian = tested on: OVCAR-3 ovarian
NCI-H522 lung = tested on: NCI-H522 lung
HOP-62 NSCLC = tested on: HOP-62 NSCLC
SNB-75 CNS = tested on: SNB-75 CNS
EKVX NSCLC = tested on: EKVX NSCLC
ACHN renal = tested on: ACHN renal
UO-31 renal = tested on: UO-31 renal
COLO 205 colon = tested on: COLO 205 colon
U251 CNS = tested on: U251 CNS
SF-268 CNS = tested on: SF-268 CNS
SN12C renal = tested on: SN12C renal
CAKI-1 renal = tested on: CAKI-1 renal
SK-OV-3 ovarian = tested on: SK-OV-3 ovarian
OVCAR-4 ovarian = tested on: OVCAR-4 ovarian
DU-145 prostate = tested on: DU-145 prostate
HOP-92 NSCLC = tested on: HOP-92 NSCLC
OVCAR-5 ovarian = tested on: OVCAR-5 ovarian
NCI-H460 lung = tested on: NCI-H460 lung
IGROV1 ovarian = tested on: IGROV1 ovarian
SW-620 colon = tested on: SW-620 colon
A549 NSCLC = tested on: A549 NSCLC
MCF7 breast = tested on: MCF7 breast
MDA-MB-231 breast = tested on: MDA-MB-231 breast
NCI/ADR-RES ovarian = tested on: NCI/ADR-RES ovarian
HT29 colon = tested on: HT29 colon
SF-539 CNS = tested on: SF-539 CNS
T-47D breast = tested on: T-47D breast
BT-549 breast = tested on: BT-549 breast
RXF 393 renal = tested on: RXF 393 renal
HS 578T breast = tested on: HS 578T breast
PC-3 prostate = tested on: PC-3 prostate
HCT-15 colon = tested on: HCT-15 colon
HL-60(TB) leukemia = tested on: HL-60(TB) leukemia
M14 melanoma = tested on: M14 melanoma
HCT-116 colon = tested on: HCT-116 colon
A498 renal = tested on: A498 renal
NCI-H23 lung = tested on: NCI-H23 lung
MDA-MB-468 breast = tested on: MDA-MB-468 breast
K-562 leukemia = tested on: K-562 leukemia
CCRF-CEM leukemia = tested on: CCRF-CEM leukemia
UACC-257 melanoma = tested on: UACC-257 melanoma
SK-MEL-28 melanoma = tested on: SK-MEL-28 melanoma
NCI-H226 lung = tested on: NCI-H226 lung
LOX IMVI melanoma = tested on: LOX IMVI melanoma
786-0 renal = tested on: 786-0 renal
SF-295 CNS = tested on: SF-295 CNS
MALME-3M melanoma = tested on: MALME-3M melanoma
MDA-MB-435 = tested on: MDA-MB-435
UACC-62 melanoma = tested on: UACC-62 melanoma
HCC-2998 colon = tested on: HCC-2998 colon
SNB-19 CNS = tested on: SNB-19 CNS
SK-MEL-2 melanoma = tested on: SK-MEL-2 melanoma
SK-MEL-5 melanoma = tested on: SK-MEL-5 melanoma
RPMI-8226 leukemia = tested on: RPMI-8226 leukemia
TK-10 renal = tested on: TK-10 renal
MOLT-4 leukemia = tested on: MOLT-4 leukemia

Cc1nc(Nc2ccccn2)sc1C(=O)CC(SCC(=O)Nc1ccc(Cl)cc1)c1ccccc1F (stereo unspecified)
GI50 (KM12 colon): 1390 nM
TGI (KM12 colon): 8.67 µM
GI50 (OVCAR-8 ovarian): 2310 nM
TGI (OVCAR-8 ovarian): 5.88 µM
GI50 (OVCAR-3 ovarian): 1530 nM
TGI (OVCAR-3 ovarian): 11.6 µM
GI50 (NCI-H522 lung): 2220 nM
TGI (NCI-H522 lung): 6.4 µM
GI50 (HOP-62 NSCLC): 2790 nM
TGI (HOP-62 NSCLC): 12.3 µM
GI50 (SNB-75 CNS): 1420 nM
TGI (SNB-75 CNS): 6.22 µM
GI50 (EKVX NSCLC): 3.15 µM
TGI (EKVX NSCLC): 13.4 µM
GI50 (ACHN renal): 3.9 µM
TGI (ACHN renal): 14.8 µM
GI50 (UO-31 renal): 3.44 µM
TGI (UO-31 renal): 16.4 µM
GI50 (COLO 205 colon): 2180 nM
TGI (COLO 205 colon): 4.67 µM
GI50 (U251 CNS): 2220 nM
TGI (U251 CNS): 6.41 µM
GI50 (SF-268 CNS): 3.74 µM
TGI (SF-268 CNS): 17.3 µM
GI50 (SN12C renal): 2720 nM
TGI (SN12C renal): 10.5 µM
GI50 (CAKI-1 renal): 2710 nM
TGI (CAKI-1 renal): 16.9 µM
GI50 (SK-OV-3 ovarian): 3.63 µM
TGI (SK-OV-3 ovarian): 29.2 µM
GI50 (OVCAR-4 ovarian): 11.4 µM
TGI (OVCAR-4 ovarian): 71.4 µM
GI50 (DU-145 prostate): 3.34 µM
TGI (DU-145 prostate): 13.2 µM
GI50 (HOP-92 NSCLC): 4.94 µM
TGI (HOP-92 NSCLC): 25.9 µM
GI50 (OVCAR-5 ovarian): 2600 nM
TGI (OVCAR-5 ovarian): 6.89 µM
GI50 (NCI-H460 lung): 2230 nM
TGI (NCI-H460 lung): 5.22 µM
GI50 (IGROV1 ovarian): 3.87 µM
TGI (IGROV1 ovarian): 20.7 µM
GI50 (SW-620 colon): 2560 nM
TGI (SW-620 colon): 11.7 µM
GI50 (A549 NSCLC): 3.15 µM
TGI (A549 NSCLC): 22.8 µM
GI50 (MCF7 breast): 1250 nM
TGI (MCF7 breast): 13.8 µM
GI50 (MDA-MB-231 breast): 2640 nM
TGI (MDA-MB-231 breast): 7.86 µM
GI50 (NCI/ADR-RES ovarian): 1810 nM
TGI (NCI/ADR-RES ovarian): 5.44 µM
GI50 (HT29 colon): 2160 nM
TGI (HT29 colon): 5.44 µM
GI50 (SF-539 CNS): 2020 nM
TGI (SF-539 CNS): 4.41 µM
GI50 (T-47D breast): 2280 nM
TGI (T-47D breast): 9.79 µM
GI50 (BT-549 breast): 2830 nM
TGI (BT-549 breast): 9.85 µM
GI50 (RXF 393 renal): 2320 nM
TGI (RXF 393 renal): 8.73 µM
GI50 (HS 578T breast): 2140 nM
TGI (HS 578T breast): 6.17 µM
GI50 (PC-3 prostate): 4.04 µM
TGI (PC-3 prostate): 93.6 µM
GI50 (HCT-15 colon): 1800 nM
TGI (HCT-15 colon): 11.2 µM
GI50 (HL-60(TB) leukemia): > 100 µM
TGI (HL-60(TB) leukemia): > 100 µM
GI50 (M14 melanoma): 1690 nM
TGI (M14 melanoma): 4.02 µM
GI50 (HCT-116 colon): 2200 nM
TGI (HCT-116 colon): 6.46 µM
GI50 (A498 renal): 12.7 µM
TGI (A498 renal): 35.7 µM
GI50 (NCI-H23 lung): 3.84 µM
TGI (NCI-H23 lung): 15.7 µM
GI50 (MDA-MB-468 breast): 1580 nM
TGI (MDA-MB-468 breast): 5.05 µM
GI50 (K-562 leukemia): > 100 µM
TGI (K-562 leukemia): > 100 µM
GI50 (CCRF-CEM leukemia): 2390 nM
TGI (CCRF-CEM leukemia): > 100 µM
GI50 (UACC-257 melanoma): 4.72 µM
TGI (UACC-257 melanoma): 19.4 µM
GI50 (SK-MEL-28 melanoma): 5.45 µM
TGI (SK-MEL-28 melanoma): 19.7 µM
GI50 (NCI-H226 lung): 7.91 µM
TGI (NCI-H226 lung): 31.2 µM
GI50 (LOX IMVI melanoma): 2310 nM
TGI (LOX IMVI melanoma): 10.3 µM
GI50 (786-0 renal): 3.74 µM
TGI (786-0 renal): 14.3 µM
GI50 (SF-295 CNS): 2770 nM
TGI (SF-295 CNS): 12.3 µM
GI50 (MALME-3M melanoma): 4.91 µM
TGI (MALME-3M melanoma): 19.6 µM
GI50 (MDA-MB-435): 1020 nM
TGI (MDA-MB-435): 2780 nM
GI50 (UACC-62 melanoma): 2240 nM
TGI (UACC-62 melanoma): 10.3 µM
GI50 (HCC-2998 colon): 3.44 µM
TGI (HCC-2998 colon): 13.8 µM
GI50 (SNB-19 CNS): 3.28 µM
TGI (SNB-19 CNS): 14.4 µM
GI50 (SK-MEL-2 melanoma): 2030 nM
TGI (SK-MEL-2 melanoma): 4.74 µM
GI50 (SK-MEL-5 melanoma): 2200 nM
TGI (SK-MEL-5 melanoma): 5.86 µM
GI50 (RPMI-8226 leukemia): 3.33 µM
TGI (RPMI-8226 leukemia): 72.1 µM
GI50 (TK-10 renal): 4.79 µM
TGI (TK-10 renal): 16.8 µM
GI50 (MOLT-4 leukemia): > 100 µM
TGI (MOLT-4 leukemia): > 100 µM
